The IC50 is the concentration that gives 50% inhibition. Read a high IC50 as lower potency. In general, inhibition refers to how much of the control response was suppressed. Read a low inhibition as little suppression.

Here are results for 13 molecules from ChEMBL document CHEMBL3352214, “Studies on indolizines. Evaluation of their biological properties as microtubule-interacting agents and as melanoma targeting compounds” (Eur J Med Chem, 2015).

The nature of assay [1]: Inhibition of sheep brain tubulin polymerization by fluorescence assay. Details: species or system Ovis aries.
Another assay is filed under the species Ovis aries. Briefly: Inhibition of sheep brain tubulin polymerization at 100 uM by fluorescence assay.
In the next assay the test system is Malme-3M. Briefly: Growth inhibition of human MALME-3M cells at 10^-5 M after 48 hrs by SRB assay. The class given is functional. Conditions: read-out: GI. Background: In SRB staining, fixed cells bind dye roughly in proportion to their protein.
The subject of the next assay is HL-60(TB). Briefly: Growth inhibition of human HL-60(TB) cells at 10^-5 M after 48 hrs by SRB assay. The class given is functional. To be noted: HL-60, 48 h, read-out: GI.
Assay [2] can be described thus: Growth inhibition of human MOLT4 cells at 10^-5 M after 48 hrs by SRB assay. To be noted: MOLT-4, 48 h, read-out: GI. The format is functional.
In another assay the test system is MCF7. Briefly: Growth inhibition of human MCF7 cells at 10^-5 M after 48 hrs by SRB assay. The format is functional. Conditions: MCF7, 48 h, read-out: GI.
A further assay deals with A498. Briefly: Growth inhibition of human A498 cells at 10^-5 M after 48 hrs by SRB assay. The class given is functional. To be noted: A498, 48 h, read-out: GI.
Assay [3] in a line: Growth inhibition of human HCT116 cells at 10^-5 M after 48 hrs by SRB assay. To be noted: HCT-116, 48 h, read-out: GI. The format is functional.
The next assay relates to T47D. Briefly: Growth inhibition of human T47D cells at 10^-5 M after 48 hrs by SRB assay. The class given is functional. To be noted: Homo sapiens, T47D, 48 h; read-out: GI.
The subject of the next assay is CAKI-1. Briefly: Growth inhibition of human Caki1 cells at 10^-5 M after 48 hrs by SRB assay. The format is functional. To be noted: CAKI-1, 48 h, read-out: GI.
Assay [4] in a line: Growth inhibition of human PC3 cells at 10^-5 M after 48 hrs by SRB assay. The format is functional. To be noted: PC-3, 48 h, read-out: GI.
The nature of assay [5]: Growth inhibition of human HOP92 cells at 10^-5 M after 48 hrs by SRB assay. To be noted: HOP-92, 48 h, read-out: GI. The format is functional.
The nature of assay [6]: Growth inhibition of human EKVX cells at 10^-5 M after 48 hrs by SRB assay. Conditions: read-out: GI. The class given is functional.
A further assay relates to SNB-75. Briefly: Growth inhibition of human SNB75 cells at 10^-5 M after 48 hrs by SRB assay. The class given is functional. Conditions: SNB-75, 48 h, read-out: GI.
The nature of assay [7]: Growth inhibition of human HCT15 cells at 10^-5 M after 48 hrs by SRB assay. The class given is functional. To be noted: HCT-15, 48 h, read-out: GI.
The subject of the next assay is MDA-MB-435. Briefly: Growth inhibition of human MDA-MB-435 cells at 10^-5 M after 48 hrs by SRB assay. The format is functional. To be noted: MDA-MB-435, 48 h, read-out: GI.
For another assay, the system named is NCI-H522. Briefly: Growth inhibition of human NCI-H522 cells at 10^-5 M after 48 hrs by SRB assay. The class given is functional. To be noted: NCI-H522, 48 h, read-out: GI.
Assay [8] in a line: Growth inhibition of human SF295 cells at 10^-5 M after 48 hrs by SRB assay. The class given is functional. To be noted: SF-295, 48 h, read-out: GI.

Turning to `CCOC(=O)c1c(C(=O)OCC)c2cc(OC)ccn2c1C(=O)c1cc(OC)c(OC)c(OC)c1`, it took 90.4 µM to reach half-maximal inhibition in [1] (IC50). Also, in the assay listed under Ovis aries, the inhibition is 57%.
With `CCOC(=O)c1cc(C(=O)c2cc(OC)c(OC)c(OC)c2)n2ccc(OC)cc12`, the inhibition of growth at 10 µM in the assay on Malme-3M turned out to be 13%; in the assay on HL-60(TB), 17%; in [2], 0%; with MCF7, 37%; in the assay with A498, 52%; in [3], 18%. Besides, the inhibition of growth at 10 µM in the assay with T47D was found to be 5%; in the assay with CAKI-1, 32%; in assay [4], 31%; in [5] it was 8%; in assay [6] it was 4%; in the assay with SNB-75, 12%. The inhibition of growth at 10 µM in assay [7] came to 21%; in the assay on MDA-MB-435 it was 89%; in the assay on NCI-H522, 44%; in assay [8], 32%. This molecule also yielded an inhibition in the assay listed under Ovis aries of 9%.
As to `CCOC(=O)c1cc(C(=O)c2cc(OC)c(OC)c(OC)c2Br)n2ccc(OC)cc12`, the inhibition of growth at 10 µM came to 0% in the assay on Malme-3M; 57% with HL-60(TB); 60% in assay [2]; 7% in the assay on MCF7; 23% with A498; 31% in assay [3]. The inhibition of growth at 10 µM in the assay on T47D stood at 36%; with CAKI-1, 51%; in assay [4], 60%; in assay [5], 39%; in assay [6], 52%; with SNB-75, 0%. In addition, the inhibition of growth at 10 µM was 39% in [7], 10% in the assay with MDA-MB-435, 35% in the assay with NCI-H522 and 38% in [8]. In assay [1], this molecule yielded an IC50 of 104 µM. This molecule also came in with an inhibition in the assay filed under Ovis aries of 54%.
As to `CCOC(=O)c1cc(C(=O)c2cc(OC)c(OC)c(OC)c2)n2cccc(C)c12`, in assay [1], the IC50 is 98.2 µM. Also, in the assay listed under Ovis aries, the inhibition stood at 55%.
In the same order, the values of `COc1cc([C@@H]2c3cc4c(cc3C[C@H]3COC(=O)[C@@H]32)OCO4)cc(OC)c1OC` [DESOXYPODOPHYLLOTOXIN] are 1.76 µM and 100%.
Regarding `COC(=O)c1c(C(=O)OC)c2cc(N(C)C)ccn2c1C(=O)c1ccc(OC)c(OC)c1`, the inhibition of growth at 10 µM with Malme-3M worked out at 0%; in the assay on HL-60(TB), 12%; in [2] it was 0%; in the assay on MCF7, 0%; with A498, 27%; in assay [3] it was 0%. In addition, the inhibition of growth at 10 µM came to 0% in the assay on T47D; 10% in the assay on CAKI-1; 11% in assay [4]; 18% in [5]; 0% in [6]; 1% in the assay with SNB-75. In addition, the inhibition of growth at 10 µM in assay [7] turned out to be 6%; with MDA-MB-435, 0%; with NCI-H522, 3%; in [8], 1%. The molecule also registered an inhibition in the assay filed under Ovis aries of 9%.
The molecule `CCOC(=O)c1c(C(=O)OCC)c2c(C)cc(C)cn2c1C(=O)c1cc(OC)c(OC)c(OC)c1` returned an IC50 in assay [1] of 93.2 µM. In the assay filed under Ovis aries, the inhibition is 58%.
In assay [1], `COC(=O)c1c(C(=O)OC)c2c(C)cc(C)cn2c1C(=O)c1ccc(OC)cc1` had an IC50 of 81.2 µM. The molecule further had an inhibition in the assay filed under Ovis aries of 61%.
For `COC(=O)c1c(C(=O)OC)c2cc(N(C)C)ccn2c1C(=O)c1cc(OC)c(OC)c(OC)c1`, the inhibition of growth at 10 µM amounted to 0% in the assay with Malme-3M; 26% in the assay with HL-60(TB); 0% in assay [2]; 0% in the assay with MCF7; 18% in the assay with A498; 0% in assay [3]. The inhibition of growth at 10 µM in the assay with T47D was 5%; in the assay on CAKI-1, 19%; in assay [4] it was 2%; in assay [5] it was 11%; in assay [6] it was 0%; in the assay on SNB-75, 9%. Also, the inhibition of growth at 10 µM in [7] was 7%; in the assay on MDA-MB-435, 4%; in the assay with NCI-H522, 3%; in assay [8], 11%. The molecule further came in with an inhibition in the assay filed under Ovis aries of 15%.
On to `COC(=O)c1c(C(=O)OC)c2cc(C)ccn2c1C(=O)c1cc(OC)c(OC)c(OC)c1`, for which the inhibition of growth at 10 µM came out at 8% in the assay on Malme-3M; 7% in the assay with HL-60(TB); 4% in assay [2]; 0% in the assay on MCF7; 3% in the assay on A498; 0% in assay [3]. Besides, the inhibition of growth at 10 µM with T47D came to 3%; in the assay with CAKI-1 it was 3%; in assay [4], 1%; in assay [5], 5%; in assay [6] it was 0%; with SNB-75 it was 7%. For the same molecule, the inhibition of growth at 10 µM in assay [7] came to 3%; with MDA-MB-435 it was 0%; with NCI-H522, 5%; in assay [8], 0%. The inhibition in the assay listed under Ovis aries was determined as 2%.
`CCOC(=O)c1c(C(=O)OCC)c2cccc(C)n2c1C(=O)c1cc(OC)c(OC)c(OC)c1` registered an IC50 in assay [1] of 174 µM. Further, the inhibition in the assay listed under Ovis aries stood at 58%.
On to `COC(=O)c1c(C(=O)OC)c2cc(OC)ccn2c1C(=O)c1ccc(OC)cc1`, for which the inhibition of growth at 10 µM stood at 0% in the assay with Malme-3M; 6% in the assay with HL-60(TB); 0% in [2]; 0% in the assay with MCF7; 7% in the assay on A498; 0% in [3]. Also, the inhibition of growth at 10 µM amounted to 2% with T47D; 18% with CAKI-1; 19% in assay [4]; 0% in [5]; 13% in [6]; 0% in the assay on SNB-75. For the same molecule, the inhibition of growth at 10 µM in assay [7] is 0%; in the assay on MDA-MB-435 it was 2%; in [8], 10%. The molecule further came in with an inhibition in the assay listed under Ovis aries of 34%.
Take `CCOC(=O)c1cc(C(=O)c2cc(OC)c(OC)c(OC)c2)n2cc(C)ccc12`: in assay [1], half-maximal inhibition (IC50) required 33.5 µM. In the assay filed under Ovis aries, this molecule had an inhibition of 73%.
